Legend:
[1] = tested on: bicistronic HCV replicon (replicon RNA, GenBank Accession No. AJ242654); assay: HCV Replicon Assay; type: cell-based; details: Hepatitis C virus, 72 h, read-out: Replicon IC50

Compound | IC50 [1] [nM] | melting point [°C]
C[C@@H](NS(=O)(=O)c1ccc(-c2c(C#N)c3ccc(OC(F)F)cc3n2-c2ccccc2)nc1)C(F)(F)F [compound 554, 6-[3-cyano-6-(difluoromethoxy)-1-phenyl-1H-indol-2-yl]-N-[(2R)-1,1,1-trifluoropropan-2-yl]pyridine-3-sulfonamide] | < 500 | 212 to 213
Cc1cc2c(cc1F)c(C(N)=O)c(-c1ccc(S(=O)(=O)N[C@H](C)C(F)(F)F)cn1)n2C1CCCCC1 [compound 716, 1-cyclohexyl-5-fluoro-6-methyl-2-(5-{[(2R)-1,1,1-trifluoropropan-2-yl]sulfamoyl}pyridin-2-yl)-1H-indole-3-carboxamide] | < 500 | 272 to 276
C[C@H](NS(=O)(=O)c1ccc(-c2c(C#N)c3ccc(F)cc3n2C2CCC2)nc1)C1CC1 [compound 144, 6-(3-cyano-1-cyclobutyl-6-fluoro-1H-indol-2-yl)-N-[(1S)-1-cyclopropylethyl]pyridine-3-sulfonamide] | < 500 | 136 to 138
C[C@@H](NS(=O)(=O)c1ccc(-c2c(C#N)c3cc(F)ccc3n2C2CCCCC2)nc1)C(F)(F)F [compound 261, 6-(3-cyano-1-cyclohexyl-5-fluoro-1H-indol-2-yl)-N-[(2R)-1,1,1-trifluoropropan-2-yl]pyridine-3-sulfonamide] | < 500 | 208 to 210
CC(C)n1c(-c2ccc(S(=O)(=O)NC(CF)CF)cn2)c(C#N)c2ccc(C3CC3)cc21 [compound 83, 6-[3-cyano-6-cyclopropyl-1-(propan-2-yl)-1H-indol-2-yl]-N-(1,3-difluoropropan-2-yl)pyridine-3-sulfonamide] | < 500 | 184 to 190
CCc1cc2c(cc1F)c(C#N)c(-c1ccc(S(=O)(=O)N[C@@H](C)C(F)(F)F)cn1)n2-c1ccc(Cl)cc1 [compound 1003, 6-[1-(4-chlorophenyl)-3-cyano-6-ethyl-5-fluoro-1H-indol-2-yl]-N-[(2S)-1,1,1-trifluoropropan-2-yl]pyridine-3-sulfonamide] | < 500 | 279 to 289
Cc1ccc2c(C#N)c(-c3ccc(S(=O)(=O)NC(C)(C)C(F)(F)F)cn3)n(-c3ccccc3)c2c1 [compound 585, 6-(3-cyano-6-methyl-1-phenyl-1H-indol-2-yl)-N-(1,1,1-trifluoro-2-methylpropan-2-yl)pyridine-3-sulfonamide] | < 500 | 210 to 212
Cc1ccc2c(C#N)c(-c3ccc(S(=O)(=O)NC4(C(F)(F)F)CCC4)cn3)n(C3CCC3)c2c1 [compound 587, 6-(3-cyano-1-cyclobutyl-6-methyl-1H-indol-2-yl)-N-[1-(trifluoromethyl)cyclobutyl]pyridine-3-sulfonamide] | < 500 | 228 to 232
Cc1c(F)cc2c(c1F)c(C#N)c(-c1ccc(S(=O)(=O)N[C@@H](C)C(F)(F)F)cn1)n2C1CCC1 [compound 555, 6-(3-cyano-1-cyclobutyl-4,6-difluoro-5-methyl-1H-indol-2-yl)-N-[(2S)-1,1,1-trifluoropropan-2-yl]pyridine-3-sulfonamide] | < 500 | 181 to 186
CCCn1c(-c2ncc(S(=O)(=O)N[C@@H](C)C3CC3)cn2)c(C#N)c2ccc(OC(F)F)cc21 [compound 208, 2-[3-cyano-6-(difluoromethoxy)-1-propyl-1H-indol-2-yl]-N-[(1S)-1-cyclopropylethyl]pyrimidine-5-sulfonamide] | < 500 | 152 to 154
C[C@H](NS(=O)(=O)c1cnc(-c2c(C#N)c3cc(F)ccc3n2C2CCC2)nc1)C(F)(F)F [compound 451, 2-(3-cyano-1-cyclobutyl-5-fluoro-1H-indol-2-yl)-N-[(2S)-1,1,1-trifluoropropan-2-yl]pyrimidine-5-sulfonamide] | < 500 | 198 to 203
Cc1c(F)cc2c(C#N)c(-c3ccc(S(=O)(=O)NC4(C(F)(F)F)CC4)cn3)n(C3CCC3)c2c1F [compound 667, 6-(3-cyano-1-cyclobutyl-5,7-difluoro-6-methyl-1H-indol-2-yl)-N-[1-(trifluoromethyl)cyclopropyl]pyridine-3-sulfonamide] | < 500 | 235 to 241
CC(C)(C)NS(=O)(=O)c1ccc(-c2c(C(N)=O)c3cc(F)c(OC(F)F)cc3n2C2CCC2)nc1 [compound 723, 2-[5-(tert-butylsulfamoyl)pyridin-2-yl]-1-cyclobutyl-6-(difluoromethoxy)-5-fluoro-1H-indole-3-carboxamide] | < 500 | 158 to 160
Cc1ccc2c(c1)c(C#N)c(-c1ccc(S(=O)(=O)N[C@@H](C)C(F)(F)F)cn1)n2-c1ccc(F)cc1 [compound 920, 6-[3-cyano-1-(4-fluorophenyl)-5-methyl-1H-indol-2-yl]-N-[(2S)-1,1,1-trifluoropropan-2-yl]pyridine-3-sulfonamide] | < 500 | 195 to 200
C[C@H](NS(=O)(=O)c1ccc(-c2c(C#N)c3ccc(C#N)cc3n2C2CCCC2)nc1)C(F)(F)F [compound 470, 6-(3,6-dicyano-1-cyclopentyl-1H-indol-2-yl)-N-[(2S)-1,1,1-trifluoropropan-2-yl]pyridine-3-sulfonamide] | < 500 | 203 to 205
CCc1cc2c(cc1F)c(C#N)c(-c1ccc(S(=O)(=O)N[C@@H](C)C(F)(F)F)cn1)n2-c1ccc(C#N)cc1 [compound 1007, 6-[3-cyano-1-(4-cyanophenyl)-6-ethyl-5-fluoro-1H-indol-2-yl]-N-[(2S)-1,1,1-trifluoropropan-2-yl]pyridine-3-sulfonamide] | < 500 | 288 to 293
N#Cc1c(-c2ncc(S(=O)(=O)NC(CF)CF)cn2)n(C2CCC2)c2cc(N3CCOCC3)ccc12 [compound 321, 2-[3-cyano-1-cyclobutyl-6-(morpholin-4-yl)-1H-indol-2-yl]-N-(1,3-difluoropropan-2-yl)pyrimidine-5-sulfonamide] | 500 to 2000 | 223 to 225
C[C@H](NS(=O)(=O)c1ccc(-c2c(C#N)c3ccc(C#N)cc3n2CC2CC2)nc1)C1CC1 [compound 350, N-[(1S)-1-cyclopropylethyl]-6-[3,6-dicyano-1-(cyclopropylmethyl)-1H-indol-2-yl]pyridine-3-sulfonamide] | 500 to 2000 | 203 to 208
Cc1cc2c(cc1F)c(C(N)=O)c(-c1ccc(S(=O)(=O)NC(C)(C)C(F)(F)F)cn1)n2C1CCOCC1 [compound 768, 5-fluoro-6-methyl-1-(tetrahydro-2H-pyran-4-yl)-2-{5-[(1,1,1-trifluoro-2-methylpropan-2-yl)sulfamoyl]pyridin-2-yl}-1H-indole-3-carboxamide] | < 500 | 200 to 206
C[C@H](NS(=O)(=O)c1ccc(-c2c(C#N)c3ccc(OC(F)(F)F)cc3n2C2CCCCC2)nc1)C1CC1 [compound 305, 6-[3-cyano-1-cyclohexyl-6-(trifluoromethoxy)-1H-indol-2-yl]-N-[(1S)-1-cyclopropylethyl]pyridine-3-sulfonamide] | < 500 | 195 to 197
